Measured values published in US20020032325A1, “4-amino-3-mercapto-1,2,4-triazoles” (priority 1999, published 2002).

Assays:
nitric oxide synthase = target: T1, nitric oxide synthase (Mus musculus, UniProt P29477); experiment: NOS inhibition assay: nitric oxide (nitrite, Greiss reagent) production from PAM 212 keratinocytes stimulated with gamma interferon; assay type: cell-based; conditions: 100 U/ml gamma interferon, 72 hours, nitrite in medium
T1 sequence (P29477 1-1144): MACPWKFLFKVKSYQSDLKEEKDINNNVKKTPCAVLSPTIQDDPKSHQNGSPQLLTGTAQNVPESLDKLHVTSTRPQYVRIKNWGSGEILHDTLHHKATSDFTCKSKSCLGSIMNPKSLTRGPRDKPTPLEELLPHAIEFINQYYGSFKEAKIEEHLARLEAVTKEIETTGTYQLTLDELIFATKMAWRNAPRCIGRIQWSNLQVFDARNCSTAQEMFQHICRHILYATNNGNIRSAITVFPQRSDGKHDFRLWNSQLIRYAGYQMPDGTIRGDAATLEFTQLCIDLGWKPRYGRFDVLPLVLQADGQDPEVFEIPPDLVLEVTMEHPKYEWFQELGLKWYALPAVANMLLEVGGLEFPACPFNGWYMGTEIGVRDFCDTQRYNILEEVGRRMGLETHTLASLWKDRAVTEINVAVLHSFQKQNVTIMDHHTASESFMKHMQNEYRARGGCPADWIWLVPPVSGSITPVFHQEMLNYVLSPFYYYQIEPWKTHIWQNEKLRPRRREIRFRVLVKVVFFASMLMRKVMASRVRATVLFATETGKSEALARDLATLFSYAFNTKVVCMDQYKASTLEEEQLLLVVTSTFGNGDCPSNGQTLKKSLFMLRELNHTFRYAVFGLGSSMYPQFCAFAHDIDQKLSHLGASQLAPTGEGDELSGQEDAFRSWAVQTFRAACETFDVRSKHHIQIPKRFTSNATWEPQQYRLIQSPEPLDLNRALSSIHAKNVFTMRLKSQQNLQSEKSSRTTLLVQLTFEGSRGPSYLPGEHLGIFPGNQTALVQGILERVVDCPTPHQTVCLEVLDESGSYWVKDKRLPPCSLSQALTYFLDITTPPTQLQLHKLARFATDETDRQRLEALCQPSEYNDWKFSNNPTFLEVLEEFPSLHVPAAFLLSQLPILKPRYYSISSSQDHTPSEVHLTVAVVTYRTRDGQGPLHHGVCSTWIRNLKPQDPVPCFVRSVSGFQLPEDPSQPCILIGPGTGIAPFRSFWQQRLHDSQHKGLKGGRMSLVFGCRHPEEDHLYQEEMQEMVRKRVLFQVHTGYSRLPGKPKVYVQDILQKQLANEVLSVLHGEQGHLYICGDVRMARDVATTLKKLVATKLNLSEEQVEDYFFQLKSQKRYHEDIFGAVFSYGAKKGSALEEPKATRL

PAM 212 cells = experiment: Antiproliferative assay, PAM 212 tumor cells counted with Coulter counter; assay type: cell-based; conditions: Mus musculus, PAM212, grown 4 to 5 days, read-out: IC50, concentration inhibiting cell growth by 50%
Text: The ability of any one of the compounds according to the present invention to inhibit cell growth is recognized by the scientific community to be directly related to its therapeutic potential as an anticancer agent. This type of growth assay can be used with mammalian cancer cells as well as with pathogenic and non-pathogenic microbes, including, but not limited to, yeasts and bacteria. To assay these compounds for anticancer activity, tumor cells (PAM 212) grown in vitro in monolayer culture flasks were used. […] Triplicate wells on the plates were used to measure control growth and growth of the cells in the presence of each concentration of anticancer agent. The cells were then returned to the incubator. […] The cells from each well on the culture dishes were removed by trypsin treatment and counted with a Coulter counter. After a period of time, the number of cells in each well was determined. The data can be presented as a curve showing the inhibition of tumor cell growth with increasing concentrations of the test compound. […] Each of the compounds according to the present invention was a potent inhibitor of cell growth with the IC50 values being typically in the micromolar concentration range.

| SMILES | IC50 (nitric oxide synthase) [µM] | melting point [°C] | IC50 (PAM 212 cells) [µM] |
| --- | --- | --- | --- |
| C1=Nn2c(Cc3ccccc3)nnc2SC(c2ccccc2)=C1 [IV (R = benzyl, R′ = H)] | 52 |  |  |
| Nn1c(S)nnc1-c1ccc(F)cc1 [III (R = 4-F—C6H4—)] | 98 |  |  |
| C1=C(c2ccccc2)Sc2nnc(-c3ccccc3)n2NC1 [Va] | 110 | 222 to 223 |  |
| Brc1ccccc1-c1nnc2n1N=CC=C(c1ccccc1)S2 [IV (R = 2-Br—C6H4—, R′ = H)] | 87 |  |  |
| Nn1c(-c2cccs2)n[nH]c1=S [III (R = 2-thienyl), 4-amino-3-mercapto-5-(2-thienyl)-(4H)-1,2,4-triazole] | 77 |  |  |
| Fc1ccc(-c2nnc3n2N=C(C(F)(F)F)CS3)cc1 | 30 |  |  |
| Fc1ccc(-c2nnc3n2N=CC=C(c2ccccc2)S3)cc1 [IVb] | 21 | 217 to 219 |  |
| CC(CCCl)Sc1nnc(-c2cccs2)n1N (stereo not drawn) |  | 196 to 197 |  |
| Oc1cccc(C=Nn2c(S)nnc2-c2cccnc2)c1O [VIIr] | 29 |  |  |
| Cc1nnc2n1N=C(C(F)(F)F)CS2 [VIIIc] | > 100 | 85 to 86 |  |
| COC(=O)CCSc1nnc(C)n1N [VI (R = methyl, R′ = —CH2—CH2—COOMe)] | 170 |  |  |
| Fc1ccc(-c2nnc3n2N=C(c2ccccc2)CS3)cc1 [VIII (R = 4-F—C6H4—, R′ = phenyl)] | > 100 |  |  |

Continued, in another order:

| IC50 (nitric oxide synthase) [µM] | melting point [°C] | SMILES | IC50 (PAM 212 cells) [µM] |
| --- | --- | --- | --- |
| > 100 | 109.5 to 111 | CC(CC(=O)Oc1ccccc1)Sc1nnc(-c2cccs2)n1N (stereo not drawn) [VIb] |  |
| 146 |  | CSc1nnc(C2CCCCC2)n1N=CC(Br)=Cc1ccccc1 [Compound Xi] |  |
| 48 | 164 to 166 | C1=Nn2c(nnc2-c2cccs2)SC(c2ccccc2)=C1 [IVc] |  |
| 35 | 206 to 206.5 | Sc1nnc(-c2cccs2)n1N=CC=Cc1ccccc1 [VIIa, 4-imino-(cinnamyl)-3-mercapto-5-(2-thienyl)-4H-1,2,4-triazole] |  |
| > 100 | 227 to 228 | COc1ccccc1C=CC=Nn1c(S)nnc1-c1cccs1 [VIIb] |  |
| 12 | 214 to 215 | O=[N+]([O-])c1ccccc1C=CC=Nn1c(S)nnc1-c1cccs1 [Compound VIIc] | 60 |
| 14 | 128 to 129.5 | CN1C(C=Cc2ccccc2)Sc2nnc(-c3ccco3)n21 (stereo not drawn) [IXd] | 45 |
| 15 | 250 to 252 | CN1C(C=Cc2ccccc2)Sc2nnc(-c3cccs3)n21 (stereo not drawn) [IXa] | 44 |
| 17 | 125 to 126 | Cc1nnc2n1N(C)C(C=Cc1ccccc1)S2 (stereo not drawn) [IXf] | > 100 |
